From US20210387983A1, “CRYSTALLINE ALK5 INHIBITORS AND USES THEREOF” (THERAVANCE BIOPHARMA R&D IP, LLC, priority 2020, published 2021)

Tests used:
[1] = Lung PK/PD: PK study after oral aspiration; assay type: in vivo; conditions: C57bl/6n, mouse, lung / plasma, mice, 3% glycerol in PBS pH=4, read-out: (lung AUC0-4):(plasma AUC0-4) ratio
Description: C57bl/6n mice were acclimated for at least 3 days before use. On the day of the experiment, animals were grouped into sample sizes of 5 (n=10 for the TGF-β stimulated group). The compound of Formula I (formulated in 3% glycerol in PBS; pH=4) was pre-treated via oral aspiration (OA; animals are forced to aspirate solution into the lungs by covering their nose). All oral aspirations were performed using a 50 μL dosing volume and accompanied by the appropriate vehicle control groups. Following compound OA treatment, the animals were returned to their home cages and monitored. Compound pre-treatment occurred 4 hours prior to harvest for screening and dose-response studies; duration studies had variable compound pre-treatment times. One hour prior to harvest, animals were challenged via oral aspiration a second time with PBS vehicle or recombinant human TGF-β1 protein (0.01 μg per animal dissolved in 1 part 4 mM HCl and 2 parts 3% glycerol in PBS). Five minutes prior to harvest, animals were deeply anesthetized under isoflurane and euthanized via cervical dislocation. […]
Left lung lobes were harvested immediately after BALF collection. […] Following collection of the supernatant, a total protein quantification assay (Bradford) was performed to normalize the concentrations of all samples. […]
Plasma, lung and macrophage drug concentrations were quantified. […]

[2] = In vitro human liver microsome intrinsic clearance (HLM Clint); assay type: in vitro ADME; conditions: liver microsomes, pH 7.4, 0.1 μM test compound, 0.1 mg/mL protein, 1 mM NADPH, 37° C.
Description: Liver microsomes were used for in vitro determination of hepatic clearance of the compound of Formula I. A microsomal incubation cofactor solution was prepared with 100 mM potassium phosphate buffered to pH 7.4 (BD Biosciences, Woburn, Mass.) supplemented with 2 mM NADPH (Sigma-Aldrich, St. Louis, Mo.). 10 mM DMSO stocks of test compound were diluted and spiked into the cofactor solution to yield a 0.2 μM concentration (0.02% v/v DMSO). Aliquots of frozen human liver microsomes (Bioreclamation IVT, Baltimore Md.) were thawed and diluted into 100 mM potassium phosphate buffer to yield microsomal protein concentrations of 0.2 mg/mL. Cofactor/drug and microsomal solutions were pre-warmed separately for 4 minutes in a water bath held at 37° C. Incubations (n=1) were started by the combination of equal volumes of cofactor/drug solution with microsomal solution. The final concentration of test compound was 0.1 μM with a final protein concentration of 0.1 mg/mL and final NADPH concentration of 1 mM. Samples were collected at times 0, 3, 8, 15, 30, and 45 minutes to monitor the disappearance of test compound. At each time point, 50 μL of incubation sample was removed and spiked into 25 μL of water plus 3% formic acid plus Internal Standard for reaction termination. Samples were then injected onto an AB Sciex API 4000 triple quadrupole mass spectrometer for quantitation by LC-MS/MS. […]

[3] = test system: monocrotaline (MCT) model of severe pulmonary hypertension; assay: Efficacy study in monocrotaline model of severe pulmonary hypertension; assay type: in vivo, Sprague-Dawley rats; conditions: MCT 60 mg/kg s.c.; oral aspiration, 2-weeks of treatment
Description: Male Sprague-Dawley rats are tagged, weighed, and randomly divided into control and MCT-treated groups. The rats in the MCT-treated group are administered a single dose of MCT (60 mg/kg, s.c.), then treated with either (1) vehicle control; (2) sildenafil (30 mg/kg, p.o., b.i.d.); or (3) the compound of Formula I at an appropriate amount and frequency (formulated in 3% glycerol in PBS; pH=4) via oral aspiration.
Following 2-weeks of treatment, the animals are anesthetized with ketamine/xylazine for terminal monitoring of pulmonary and systemic arterial pressures along with heart rate. The lungs of each animal are then harvested for histologic analysis.

Q: Which Kp [1] does the source give for `C[C@@H]1CN(CCNc2cnc3ccc(-c4nc[nH]c4-c4cc(Cl)ccc4F)nc3c2)C[C@H](C)N1` [compound of Formula I, 6-(5-(5-chloro-2-fluorophenyl)-1H-imidazol-4-yl)-N-(2-((3S,5R)-3,5-dimethylpiperazin-1-yl)ethyl)-1,5-naphthyridin-3-amine] here?
A: > 75

Q: And the microsomal CLint at 0.1 μM [2]?
A: > 250 µL/min/mg

Q: What about the “progression of pulmonary hypertension” value [3] of the same compound?
A: slow, halt or reverse the progression of pulmonary hypertension
